Values quoted from earlier work as cited in patent US20260204362A1, “METHOD FOR DETERMINING A TARGET […] COMPOUND COMPRISING A TARGET BIODEGRADABILITY” (BASF SE, priority 2022, published 2026).

Conditions: known values for test molecules from the NITE database; OECD 301 (A-F) test setups, measurement uncertainty ca. 10%

SMILES: BrCCCCBr [BrCCCCBr]
- Biodegradability (data) in %: 17%

SMILES: CCC(CC)C(=O)OCCOCCOCCOC(=O)C(CC)CC [CCC(CC)C(═O)OCCOCCOCCOC(═O)C(CC)CC]
- Biodegradability (data) in %: 81%

SMILES: CCCCN(CCCC)C(=S)[S][Ni][S]C(=S)N(CCCC)CCCC [CCCCN(CCCC)C(═S)S[Ni]SC(═S)N(CCCC)CCCC]
- Biodegradability (data) in %: 3%

SMILES: CNCCS(=O)(=O)O [CNCCS(═O)(═O)O]
- Biodegradability (data) in %: 62%

SMILES: OCC=CCO [OCC═CCO]
- Biodegradability (data) in %: 57%
